Columns and labels:
[1] = Solid-state properties and open-container stability of sofosbuvir Forms 6 and 7; type: physicochemical
Source text: In some embodiments, and the Examples presented herein, the tablet formulation includes sofosbuvir having Form 6 and, optionally, a trace amount of Form 7. […] Form 6 of sofosbuvir is the thermodynamically stable form and remains physically stable when suspended in water. Form 7 of Sofosbuvir, while physically stable in water for short periods of time, can be converted to Form 6 with prolonged stirring.

[2] = Food effect (high calorie/high-fat meals) on pharmacokinetics in human subjects (Table 28); type: in vivo; settings: tablets 400/100/100 mg; high calorie/high-fat meal
Description: The effect of food (high calorie/high-fat meals) on the pharmacokinetics of sofosbuvir/velpatasvir SSD/voxilaprevir SSD tablets (400/100/100 mg). […] As a result, sofosbuvir/velpatasvir SSD/voxilaprevir SSD tablets are administered with food.

[3] = Physical stability of tablets spiked with crystalline voxilaprevir Form VIII and Form X (Tables 22, 23); type: physicochemical; settings: in tablets in the presence of pre-existing crystalline voxilaprevir
Description: For each of the impact studies, the sofosbuvir/velpatasvir SSD/voxilaprevir SSD tablets were packaged in a designated commercial packaging configuration (28-count, 100 mL HPDE bottle, coil, 1 g desiccant), and stored for 12 weeks at 25° C./60% RH and 40° C./75% RH. Tablets were also packaged in open containers (28-count, 100 mL HPDE bottle without cap) and stored for 4 weeks at 40° C./75% RH and for 1 week at 50° C./92% RH.
The impact of crystalline voxilaprevir Form VIII and Form X seeds on the physical stability and dissolution of sofosbuvir/velpatasvir SSD/voxilaprevir SSD tablets was evaluated (Tables 22 and 23). As described in Table 22, sofosbuvir/velpatasvir SSD/voxilaprevir SSD tablets Lots A and B were spiked with 5 and 10% w/w Form VIII (% w/w with respect to total voxilaprevir), respectively. Sofosbuvir/velpatasvir SSD/voxilaprevir SSD tablets Lots C and D, as described in Table 23, were spiked with 10 and 20% w/w Form X (% w/w with respect to total voxilaprevir), respectively.

[4] = Chemical and physical stability of Formulation G film-coated tablets Lots A and B (Tables 11A, 11B); type: physicochemical; settings: packaged Formulation G tablets; 40° C./75% RH and 25° C./60% RH for 6 months
Description: In some embodiments, the film-coated tablets were packaged in 75 and 100 mL white HDPE bottles (Lots A and B, respectively, as described in Tables 11A, 11B) with 1 g silica gel desiccant canisters and a polyester fiber coil. The 75 and 100 mL HDPE bottles contained fourteen and twenty eight tablets, respectively. Each HDPE bottle was capped using a continuous thread, child-resistant polypropylene screw cap with an […], aluminum-faced line. The packaged tablets (14 and 28 counts) were evaluated for stability at 40° C./75% RH and 25° C./60% RH. Additionally, the 14-count bottles (without cap) were evaluated for stability under open conditions at 40° C./75% RH.

[5] = Photostability of tablet cores and film-coated tablets per ICH Q1B (Table 12); type: physicochemical; settings: for level of degradation products: tablets film-coated to weight gains 2.1 to 5.4%; for loss after exposure to light: uncoated tablet cores
Description: Tablet cores and film-coated tablets were evaluated per ICH Q1B guidelines with a total of illumination of more than 1.2 million-lux hours and a total irradiance of more than 200 W·hr/m^2.

[6] = Tablet dissolution, 50 mM sodium acetate buffer pH 5.0 with 2.0% w/v Polysorbate 80, USP Type II, 75 rpm; type: physicochemical; settings: for dissolution at 30 minutes: after 4 weeks open at 40° C./75% RH
Description: FIGS. 10-12 depict additional dissolution profiles for the sofosbuvir/velpatasvir SSD/voxilaprevir SSD tablets having the formulation described in Table 13 and which were used in phase 1, 2, and 3 clinical studies, where the dissolution testing was conducted at pH 5.0 acetate buffer containing 2.0% w/v polysorbate 80. Four batches of the sofosbuvir/velpatasvir SSD/voxilaprevir SSD tablets were tested, with Batch A manufactured at 100 kg and Batches B, C and D manufactured at 145 kg. All other aspects of the formulation and manufacturing process were otherwise equivalent. […] Moreover, for Batch A, the amount dissolved at 30 min remained between 98 and 100% for sofosbuvir, between 90 and 92% for velpatasvir SSD, and between 89 and 93% for voxilaprevir SSD. […] For Batch D, the amount dissolved at 30 min remained at 100% for sofosbuvir, between 90 and 91% for velpatasvir SSD, and between 89 and 91% for voxilaprevir SSD. Release of velpatasvir SSD and voxilaprevir SSD from the sofosbuvir/velpatasvir SSD/voxilaprevir SSD tablets associated with all four Batches was complete after 60 minutes.

[7] = Stress studies: stability of tablets made with stressed VEL SSD/VOX SSD (water, residual solvent, peroxide, reprocessing, potency; Tables 16-21); type: physicochemical
Description: The impact of the following stressors on the physical and chemical stability of the sofosbuvir/velpatasvir SSD/voxilaprevir SSD tablets were evaluated:
(i) Voxilaprevir SSD and velpatasvir SSD, and sofosbuvir/velpatasvir SSD/voxilaprevir SSD tablet water content;
(ii) Copovidone peroxide content in velpatasvir SSD and in voxilaprevir SSD (iii) Reprocessed velpatasvir SSD and voxilaprevir SSD;
(iv) Voxilaprevir SSD and velpatasvir SSD potency (varying the ratio of velpatasvir or voxilaprevir to copovidone); and
(v) Seeding sofosbuvir/velpatasvir SSD/voxilaprevir SSD tablets with crystalline voxilaprevir Form VIII and Form X drug substances.

[8] = Tablet dissolution as a function of medium pH and composition (FIGS. 13-15); type: physicochemical; settings: for dissolution from tablets: pH 2.0, 4.5 and 6.8 buffers, FaSSIF and FeSSIF; for dissolution from tablets at 60 minutes: pH 4.0 and 5.0 containing 2.0% w/v polysorbate 80
[9] = Velpatasvir pharmacokinetics after single and multiple oral doses (Table 1); type: in vivo, human; settings: for t1/2 / tlast / tmax: median
Description: Following single and multiple oral doses of velpatasvir, maximum plasma concentrations occurred between 1.50 and 3.25 hours (median tmax).

[10] = BCS classification and pH dependence of solubility; type: physicochemical
[11] = Impact of desiccant and packaging configuration on tablet stability (Tables 24A-24C); type: physicochemical; settings: desiccant study (0, 1, 3 g); all conditions, 6 months;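 also: stability of tablets stored with different desiccant amounts and packaging configurations, evaluating physical and chemical stability plus dissolution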
[12] = SSD potency study, tablet Lots A-D, all conditions
[13] = tablets from VEL SSD 6.0% residual ethanol and VOX SSD 2.1% residual acetone, all conditions
[14] = tablets from VEL SSD 7.0% and VOX SSD 3.2% water content, all conditions

## CC(C)OC(=O)[C@H](C)N[P@](=O)(OC[C@H]1O[C@@H](n2ccc(=O)[nH]c2=O)[C@](C)(F)[C@@H]1O)Oc1ccccc1 [Form 6, sofosbuvir]
[1]
  hygroscopicity: non-hygroscopic
  photosensitivity: not photosensitive
[1]; open container, 1 month at 40° C./75% RH
  physical and chemical stability: physically and chemically stable

## C[C@@]1(F)[C@H](O)[C@@H](CO)O[C@H]1n1ccc(=O)[nH]c1=O [Formulation M1]
[2]
  effect of food on plasma exposure: does not substantially alter

## C[C@H](NP(=O)(O)OC[C@H]1OC(n2ccc(=O)[nH]c2=O)[C@](C)(F)[C@@H]1O)C(=O)O (stereo partly drawn) [Formulation M2]
[2]
  effect of food on plasma exposure: does not substantially alter

## COC[C@H]1C[C@@H](c2ncc(-c3ccc4c(c3)COc3cc5c(ccc6nc([C@@H]7CC[C@H](C)N7C(=O)[C@@H](NC(=O)OC)C(C)C)[nH]c65)cc3-4)[nH]2)N(C(=O)[C@H](NC(=O)OC)c2ccccc2)C1 [amorphous velpatasvir free base, velpatasvir]
[3]
  tendency to crystallize: no tendency to crystallize

## COC[C@H]1C[C@@H](c2ncc(-c3ccc4c(c3)COc3cc5c(ccc6nc([C@@H]7CC[C@H](C)N7C(=O)[C@@H](NC(=O)OC)C(C)C)[nH]c65)cc3-4)[nH]2)N(C(=O)[C@H](NC(=O)OC)c2ccccc2)C1 [velpatasvir, methyl {(2S)-1-[(2S,5S)-2-(9-{2-[(2S,4S)-1-{(2R)-2-[(methoxycarbonyl)amino]-2-phenylacetyl}-4-(methoxymethyl)pyrrolidin-2-yl]-1H-imidazol-5-yl}-1,11-dihydroisochromeno[4′,3′:6,7]naphtho[1,2-d]imidazol-2-yl)-5-methylpyrrolidin-1-yl]-3-methyl-1-oxobutan-2-yl}carbamate]
[4]
  total impurities/degradation products: 0.0%
[5]
  level of degradation products: 0.4%
  loss after exposure to light: up to 0.3%
[6]; potency study Lot A
  dissolution at 30 minutes: 86%
[6]; potency study Lot B
  dissolution at 30 minutes: 91%
[6]; potency study Lots C and D
  dissolution at 30 minutes: 89-93%
[6]; tablets containing neat amorphous velpatasvir free base
  release of velpatasvir at 30 minutes: 62%
[6]; tablets containing velpatasvir SSD
  release of velpatasvir at 30 minutes: 91%
[7]; [12]
  total impurities/degradation products: 0.0%
[7]; tablets from SSDs with copovidone 544 ppm (VEL SSD) and 655 ppm (VOX SSD) peroxides
  total impurities/degradation products: 0.0%
[7]; [13]
  total impurities/degradation products: 0.0%
[7]; [14]
  total impurities/degradation products: 0.0%
[8]
  dissolution from tablets: Incomplete dissolution
  dissolution from tablets at 60 minutes: complete dissolution
[9]; multiple dose 5 mg, mean
  CLss/F: 36,095.7 mL/h
  Cmax: 28.3 ng/mL
[9]; multiple dose 5 mg
  t1/2: 13.73 h
  tlast: 24.00 h
  tmax: 2.00 h
[9]; multiple dose 50 mg, mean
  CLss/F: 19,593.0 mL/h
  Cmax: 411.4 ng/mL
  Ctau: 37.9 ng/mL
[9]; multiple dose 50 mg
  t1/2: 13.02 h
  tlast: 24.00 h
[9]; multiple dose 150 mg, mean
  CLss/F: 45,082.3 mL/h
  Cmax: 669.4 ng/mL
  Ctau: 63.4 ng/mL
[9]; multiple dose 150 mg
  t1/2: 15.15 h
  tlast: 24.00 h
[9]; multiple dose 450 mg, mean
  CLss/F: 58,804.6 mL/h
  Cmax: 1195.7 ng/mL
  Ctau: 127.7 ng/mL
[9]; multiple dose 450 mg
  t1/2: 11.74 h
  tlast: 24.00 h
  tmax: 3.00 h
[9]; multiple once-daily doses greater than 5 mg
  mean plasma concentration at 24 hours postdose relative to protein-adjusted EC50 for genotype 1 to 6 HCV replicons: above
[9]; single dose 5 mg, mean
  CL/F: 58,398.0 mL/h
[9]; single dose 5 mg
  tlast: 24.00 h
[9]; single dose 50 mg, mean
  CL/F: 19,188.4 mL/h
  Clast: 2.34 ng/mL
[9]; single dose 50 mg
  tlast: 72.00 h
[9]; single dose 100 mg, mean
  CL/F: 24,617.9 mL/h
  Clast: 2.85 ng/mL
[9]; single dose 100 mg
  tlast: 95.00 h
[9]; single dose 150 mg, excluding one patient, mean (% CV)
  CL/F: ^bMean (% CV) CL/F for the VEL 150 mg group (excluding one patient) was 31,403.8 (40.5) mL/h.
[9]; single dose 150 mg, mean
  CL/F: 72,185.5 mL/h
  Clast: 2.23 ng/mL
[9]; single dose 150 mg
  tlast: 96.00 h
[9]; single dose 450 mg, mean
  CL/F: 53,676.4 mL/h
  Clast: 3.28 ng/mL
[9]; single dose 450 mg
  tlast: 96.00 h
[10]
  BCS Class: BCS Class 4
  aqueous solubility, pH dependence: pH-dependent

## CC[C@@H]1[C@@H]2CN(C(=O)[C@H](C(C)(C)C)NC(=O)O[C@@H]3C[C@H]3CCCCC(F)(F)c3nc4ccc(OC)cc4nc3O2)[C@@H]1C(=O)N[C@]1(C(=O)NS(=O)(=O)C2(C)CC2)C[C@H]1C(F)F [voxilaprevir, (1aR,5S,8S,9S,10R,22aR)-5-tert-butyl-N-{(1R,2R)-2-(difluoromethyl)-1-[(1-methylcyclopropanesulfonyl)carbamoyl]cyclopropyl}-9-ethyl-18,18-difluoro-14-methoxy-3,6-dioxo-1,1a,3,4,5,6,9,10,18,19,20,21,22,22a-tetradecahydro-8H-7,10-methanocyclopropa[18,19][1,10,3,6]dioxadiazacyclononadecino[11,12-b]quinoxaline-8-carboxamide]
[5]
  level of degradation products: 0.0%
  loss after exposure to light: no change
[6]; potency study Lot A
  dissolution at 30 minutes: 85%
[6]; potency study Lot B
  dissolution at 30 minutes: 91%
[6]; potency study Lots C and D
  dissolution at 30 minutes: 92%
[6]; tablets containing 0% w/w crystalline voxilaprevir
  voxilaprevir released at 30 minutes: 91%
[6]; tablets containing neat amorphous voxilaprevir free acid
  voxilaprevir released at 30 minutes: 76%
[6]; tablets containing voxilaprevir SSD
  voxilaprevir released at 30 minutes: 91%
[6]; tablets spiked with 5% w/w Form VIII or Form X
  voxilaprevir released at 30 minutes: 84%
[6]; tablets spiked with 10% w/w Form VIII or Form X
  voxilaprevir released at 30 minutes: 80%
[6]; tablets spiked with 20% w/w Form VIII or Form X
  voxilaprevir released at 30 minutes: 73%
[7]; [12]
  total impurities/degradation products: 0.7%
[7]; [13]
  total impurities/degradation products: 0.0%
[7]; [14]
  total impurities/degradation products: 0.0%
[11]
  total impurities/degradation products: 0.0%
[8]
  dissolution from tablets: Incomplete dissolution
  dissolution from tablets at 60 minutes: complete dissolution
[10]
  BCS Class: BCS Class 2
  aqueous solubility, pH dependence: pH-dependent
